Assay results as given in article PMC8808171, “Nonselective TRPC channel inhibition and suppression of aminoglycoside-induced premature termination codon readthrough by the small molecule AC1903” (The Journal of Biological Chemistry, 2022).
pIC50: −log10 of the molar value.

How the values were obtained:
TRPC5–C1 = molecular target: T1, TRPC5–C1 (Homo sapiens, UniProt P48995+Q9UL62); test: [Ca2+]i recordings (Fura-2), concatemeric TRPC5–C1 in HEK T-REx cells; assay type: cell-based; conditions: activator EA (30 nM)
T1 construct: expressed in transfected cells; host or cells: HEK T-REx (tetracycline-induced)
Description: Based on the findings described above, we wondered whether AC1903—which is typically used as a TRPC5 inhibitor at concentrations of 30–100 μM in cellular assays ([29], [56])—might have limited selectivity for TRPC5 channels and whether its effect on intracellular G418 levels and PTC readthrough might be the consequence of inhibition of other or multiple targets. All well-characterized TRPC channel inhibitors reported to date modulate multiple TRP(C) channels ([34], [35], [36]). […] Because limited data for the selectivity of AC1903 are available in the public domain, we decided to profile AC1903 against a selection of calcium-permeable cation channels by intracellular calcium ([Ca^2+]i) recordings using well-characterized cell lines and TRP channel activators ([46], [57], [58]), and the Ca^2+ indicator Fura-2. In these assays, cells (HEK 293, HEK T-REx, or CHO) overexpressing the relevant ion channel protein and loaded with Fura-2 AM (a cell-permeable precursor of Fura-2) were preincubated with various concentrations of AC1903 or vehicle (DMSO) for 30 min. Then, changes in ratiometric fluorescence (from background) were recorded upon addition of the respective ion channel activator.
HEK T-REx cells expressing tetracycline-inducible TRPC4, TRPC5, TRPC5–C1,TRPC4–C1, and hPiezo1 have been described previously ([46], [57], [59], [78]). […]

WT HEK 293 cells = test: Carbachol-mediated [Ca2+]i response in WT HEK 293 cells; assay type: cell-based; conditions: carbachol (100 μM), n/N = 1/6
Description: To test the effect of AC1903 on TRPC4 channels, we initially attempted to use carbachol to activate TRPC4:C4 channels, in line with patch-clamp experiments reported by Zhou et al. ([29]). […] Therefore, we used the selective TRPC1/4/5 activator EA and the physiological TRPC4/5 activator S1P instead.
[Ca^2+]i recordings were carried out using the ratiometric Ca^2+ dye Fura-2. 24 h prior to experiments, cells were plated either onto black, clear bottom poly-D-lysine-coated 96-well plates (HEK cells) or clear 96-well plates (A498 cells, CHO cells) at 50,000 cells per well (HEK cells) or 20,000 cells per well (A498 cells, CHO cells). For tetracycline-inducible HEK T-REx cells, protein expression was induced with tetracycline (TRPC channels: 1 μg ml^−1; hPiezo1: 100 ng ml^−1) at this point. To load cells with the Fura-2 dye, media was removed and cells were incubated with standard bath solution (SBS) containing 2 μM Fura-2 acetoxymethyl ester (Fura-2 AM; Thermo Fisher Scientific) and 0.01% pluronic acid for 1 h at 37 °C. SBS contained (in mM): NaCl 130, KCl 5, glucose 8, HEPES 10, MgCl2 1.2 and CaCl2 1.5. After this incubation, cells were washed twice with fresh SBS. […]
Inhibition of G418-induced premature stop codon readthrough
Figure S7. […] Responses were calculated at 70-80 s compared to [Ca2+]i at baseline (0-55 s). […]

T1 sequence (Q9UL62+P48995 fused): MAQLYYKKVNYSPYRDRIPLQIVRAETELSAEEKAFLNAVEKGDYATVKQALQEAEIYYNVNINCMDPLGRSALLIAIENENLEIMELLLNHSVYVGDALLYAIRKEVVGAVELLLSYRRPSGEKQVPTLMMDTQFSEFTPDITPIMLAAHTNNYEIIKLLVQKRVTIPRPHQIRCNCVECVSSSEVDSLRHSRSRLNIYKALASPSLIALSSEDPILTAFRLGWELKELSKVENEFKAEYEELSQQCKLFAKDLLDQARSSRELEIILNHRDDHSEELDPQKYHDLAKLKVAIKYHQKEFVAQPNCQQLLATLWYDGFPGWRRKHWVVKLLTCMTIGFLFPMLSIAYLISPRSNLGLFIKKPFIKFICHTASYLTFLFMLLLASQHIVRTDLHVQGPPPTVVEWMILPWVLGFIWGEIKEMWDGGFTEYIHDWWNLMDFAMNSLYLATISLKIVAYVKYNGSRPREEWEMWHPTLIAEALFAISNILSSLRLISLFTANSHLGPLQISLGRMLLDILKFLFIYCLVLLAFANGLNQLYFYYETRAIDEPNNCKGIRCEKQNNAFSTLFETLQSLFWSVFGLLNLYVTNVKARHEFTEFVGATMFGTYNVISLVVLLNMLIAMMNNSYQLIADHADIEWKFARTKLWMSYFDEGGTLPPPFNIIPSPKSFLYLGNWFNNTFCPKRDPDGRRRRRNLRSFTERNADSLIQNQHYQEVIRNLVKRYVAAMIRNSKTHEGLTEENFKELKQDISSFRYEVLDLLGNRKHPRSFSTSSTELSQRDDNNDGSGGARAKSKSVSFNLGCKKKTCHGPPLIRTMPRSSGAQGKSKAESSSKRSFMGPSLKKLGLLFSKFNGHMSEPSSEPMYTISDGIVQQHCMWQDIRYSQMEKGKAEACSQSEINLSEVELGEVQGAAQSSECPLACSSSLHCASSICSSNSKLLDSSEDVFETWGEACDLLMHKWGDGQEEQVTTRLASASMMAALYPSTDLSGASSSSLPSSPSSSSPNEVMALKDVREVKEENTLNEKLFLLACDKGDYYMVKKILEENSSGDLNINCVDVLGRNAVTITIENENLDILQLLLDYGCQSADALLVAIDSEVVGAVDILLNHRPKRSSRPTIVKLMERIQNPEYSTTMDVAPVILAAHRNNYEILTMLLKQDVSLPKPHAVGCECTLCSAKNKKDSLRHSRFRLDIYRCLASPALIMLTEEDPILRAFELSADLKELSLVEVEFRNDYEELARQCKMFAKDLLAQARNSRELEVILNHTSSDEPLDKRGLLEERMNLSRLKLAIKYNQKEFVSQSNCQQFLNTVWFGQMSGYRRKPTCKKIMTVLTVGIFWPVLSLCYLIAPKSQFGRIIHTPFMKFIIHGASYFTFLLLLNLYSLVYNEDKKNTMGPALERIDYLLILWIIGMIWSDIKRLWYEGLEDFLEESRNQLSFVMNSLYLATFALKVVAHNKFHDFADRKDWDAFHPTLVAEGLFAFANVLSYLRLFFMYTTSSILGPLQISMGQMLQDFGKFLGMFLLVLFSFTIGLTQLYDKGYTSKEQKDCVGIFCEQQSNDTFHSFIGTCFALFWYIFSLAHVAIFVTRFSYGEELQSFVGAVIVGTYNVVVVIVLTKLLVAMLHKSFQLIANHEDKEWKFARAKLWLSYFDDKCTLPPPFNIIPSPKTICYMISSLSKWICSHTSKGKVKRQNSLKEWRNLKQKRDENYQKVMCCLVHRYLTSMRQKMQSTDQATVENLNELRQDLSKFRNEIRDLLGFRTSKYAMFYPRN

pIC50 (TRPC5–C1; HEK T-REx): 5.33
Hill slope (TRPC5–C1): -1.3
Structure (SMILES): c1ccc(Cn2c(NCc3ccco3)nc3ccccc32)cc1 [AC1903]
pIC50 (WT HEK 293 cells): 4.70
